Assay results reported in patent US8101171B2, “Modulators of the development of mychorrizal fungi with arbuscules, and uses thereof” (priority 2004, dated 2012).
Marks after values point to notes of the source that are not given here.

Assays:
[1] = system: Glomus intraradices spores; assay: Polarographic measurement of oxygen consumption (cell respiration) of germinating Glomus intraradices spores; assay type: cell-based; settings: GR24 0.3 μM final
Protocol: Polarographic measurements of oxygen consumption were carried out on Glomus intraradices spores in germination, in the presence or absence of GR24.
400 spores in 1 ml of medium M are used per test.
In order to stimulate the spores, there are added to each test 10 μl of a 30 μM solution of GR24 in acetone (1%), namely a final concentration of GR24 of 0.3 μM. The controls receive 10 μl of acetone (1%).
The oxygen consumption is measured using an oxygen electrode, known as a Clark electrode (Hansatech Ltd, Hardwick Industrial, Norfolk, United Kingdom), inserted into a Plexiglass chamber. The oxygen electrode is connected to a recorder calibrated between 0 and 100% with atmospheric oxygen.
The spores are introduced into the chamber, and the temperature is maintained at 30° C. by means of a circulating water bath. The rates of oxygen consumption are read directly from the recorder. The measurements of oxygen consumption are carried out over 15 minutes, after 4 hours' stimulation (series 1) and after 5½ hours' stimulation (series 2).
Two independent series of experiments were carried out. For each, the recorded values correspond to the average of 3 tests.
The increase in oxygen consumption is expressed as a percentage relative to that of the control, treated with acetone.

[2] = system: Gigaspora rosea spores; assay: Stimulation of the branching of the hyphae of Gigaspora rosea by GR24 (newly formed apexes); assay type: cell-based
Source text: The stimulated branching of the hyphae (appearance of new apexes) is the test currently employed to evaluate the stimulating activity of various effectors on endomycorrhizal fungi of the genus Gigaspora. This phenomenon occurs naturally close to the roots of host plants, as well as under the action of root exudates, and is considered to be a preparatory phase to the establishment of symbiosis (Buée et al., Molecular Plant-Microbe Interaction, 2000, 13:693-698). This increase in branching is the result of stimulation of the fungus metabolism and leads to an increase in the points of contact between the fungus and the roots of the plant. Any increase in the branching of the hyphae of the fungus increases mycorrhization.
Measurements of branching (expressed as the number of apexes appearing after stimulation) of the germinative tubes of Gigaspora rosea were carried out in the presence of various concentrations of GR24.
To that end, Gigaspora rosea spores are germinated in gelosed medium M (medium M containing 0.4% (w/v) Phytagel®—SIGMA, France) for 5 days at 30° C. and in an atmosphere enriched with 2% CO2. 10 μl of test agents (in concentrations varying from 10^−8 to 10^−15 M) in solution in 50% methanol are then added to the medium by introduction into a well hollowed out in the gelose.
The controls receive the solvent for the test molecules (10 μl of 50% methanol) under the same conditions.
48 hours after treatment, the apexes formed above the stimulation zone are counted. Two series of experiments with GR24, at different concentrations, were carried out.

[3] = system: Gigaspora rosea; assay: Oxygraph measurement of cell respiration of Gigaspora rosea; assay type: cell-based; settings: for % stimulation (respiration, average of 3 tests): GR7 0.1 μM final
Protocol: The control is carried out using 10 μl of methanol/water (v/v) per ml of medium.
Two independent series of experiments were carried out, after 4 hours' stimulation (series 1) and after 5½ hours' stimulation (series 2).
For each, the values recorded correspond to the averages of 3 tests.

[4] = system: Gigaspora rosea spores; assay: Stimulation of hypha branching and elongation of Gigaspora rosea by GR7; assay type: cell-based
Protocol: Gigaspora rosea spores are germinated in gelosed medium M for 5 days at 30° C. and in an atmosphere enriched with 2% CO2. 10 μl of test agent solution are then added to the medium by introduction into a well hollowed out in the gelose, starting from a solution having a concentration of test agent varying from 10^−5 to 10^−11 M. The controls receive only the solvent for the test agents (10 μl of 50% methanol) under the same conditions.
The apexes formed are counted after 48 hours' treatment. In addition, the elongation activity is evaluated by measuring the number of cm formed before and after treatment. Two series of experiments, with different concentrations of GR7, were carried out.

[5] = system: Medicago truncatula / Gigaspora rosea; assay: In vitro mycorrhization of Medicago truncatula by Gigaspora rosea (points of contact between fungus and roots); assay type: in vivo; settings: GR7 0.1 μM in medium M, 3 weeks, 8 plants; control (methanol) 2.2; P = 0.02 Mann-Whitney
Protocol: Measurements of the number of points of contact established between the fungus and the roots during in vitro mycorrhization experiments were carried out. Medicago truncatula plants were cultivated in vitro in the presence of Gigaspora rosea spores, on medium M enriched with GR7.
For the tests, medium M prepared as above is enriched with GR7 to give a final concentration of 0.1 μM. The controls are carried out with medium M to which methanol is added to give a final concentration of 0.1%. The medium is poured into square Petri dishes (100×100). Three control dishes and three test dishes are prepared. The Gigaspora rosea spores are pre-germinated in those dishes (25 per dish) in an oven at 30° C., with 2% CO2, for 6 days. The Medicago truncatula seeds are sterilized with Javel water at 8 degrees chlorimetric for 5 minutes. After rinsing with sterile distilled water, they are germinated on a medium composed of bacteriological agar with 1 μM gibberellin. After 24 hours at 4° C., they are transferred into a chamber at 25° C. for 24 hours. Eighteen plantlets so prepared are then distributed randomly in the six experimental dishes containing the spores in the process of germinating. […]
The number of points of contact established between the fungus and the roots is counted plant by plant after observation under a microscope.

[6] = Series 1: after 4 hours' stimulation
[7] = Series 2: after 5½ hours' stimulation
[8] = GR7 10^−5 M, Series 1, relative to control
[9] = GR7 10^−5 M, Series 2, relative to control
[10] = GR7 10^−7 M, Series 1, relative to control
[11] = GR7 10^−7 M, Series 2, relative to control
[12] = GR7 10^−9 M, Series 1, relative to control
[13] = GR7 10^−9 M, Series 2, relative to control
[14] = GR7 10^−11 M, Series 1, relative to control
[15] = GR7 10^−11 M, Series 2, relative to control

With `CC1=CC(O/C=C2/C(=O)OC3c4ccccc4CC23)OC1=O` (stereo not drawn) [GR24] the “% stimulation (increase in oxygen consumption relative to control, average of 3 tests)” value [1, 6] was 29.0%, the “% stimulation (increase in oxygen consumption relative to control, average of 3 tests)” value [1, 7] was 76.6% and the Apex/spore ([2]; GR24 10^−8 M, Series 1, 48 hours after treatment) was 16.3. The “Number of newly formed apexes” value ([2]; GR24 10^−8 M, Series 1, 48 hours after treatment, 4 spores) was 65, the Stimulation factor ([2]; GR24 10^−8 M, Series 1, relative to control) was 5.4 and the Apex/spore ([2]; GR24 10^−8 M, Series 2, 48 hours after treatment) was 14.0. For the same molecule, the “Number of newly formed apexes” value ([2]; GR24 10^−8 M, Series 2, 48 hours after treatment, 1 spore) was 14, the Stimulation factor ([2]; GR24 10^−8 M, Series 2, relative to control) was 4.0 and the Apex/spore ([2]; GR24 10^−10 M, Series 1, 48 hours after treatment) was 15.0. For the same molecule, the “Number of newly formed apexes” value ([2]; GR24 10^−10 M, Series 1, 48 hours after treatment, 3 spores) was 45, the Stimulation factor ([2]; GR24 10^−10 M, Series 1, relative to control) was 5.0 and the Apex/spore ([2]; GR24 10^−10 M, Series 2, 48 hours after treatment) was 13.3. For the same molecule, the “Number of newly formed apexes” value ([2]; GR24 10^−10 M, Series 2, 48 hours after treatment, 3 spores) was 40, the Stimulation factor ([2]; GR24 10^−10 M, Series 2, relative to control) was 3.8 and the Apex/spore ([2]; GR24 10^−12 M, Series 1, 48 hours after treatment) was 9.0. For the same molecule, the “Number of newly formed apexes” value ([2]; GR24 10^−12 M, Series 1, 48 hours after treatment, 4 spores) was 36, the Stimulation factor ([2]; GR24 10^−12 M, Series 1, relative to control) was 3.0 and the Apex/spore ([2]; GR24 10^−12 M, Series 2, 48 hours after treatment) was 8.5. For the same molecule, the “Number of newly formed apexes” value ([2]; GR24 10^−12 M, Series 2, 48 hours after treatment, 4 spores) was 34, the Stimulation factor ([2]; GR24 10^−12 M, Series 2, relative to control) was 2.4 and the Apex/spore ([2]; GR24 10^−15 M, Series 1, 48 hours after treatment) was 3.8. For the same molecule, the “Number of newly formed apexes” value ([2]; GR24 10^−15 M, Series 1, 48 hours after treatment, 4 spores) was 15, the Stimulation factor ([2]; GR24 10^−15 M, Series 1, relative to control) was 1.3 and the Apex/spore ([2]; GR24 10^−15 M, Series 2, 48 hours after treatment) was 8.5. For the same molecule, the “Number of newly formed apexes” value ([2]; GR24 10^−15 M, Series 2, 48 hours after treatment, 2 spores) was 17, the Stimulation factor ([2]; GR24 10^−15 M, Series 2, relative to control) was 2.4 and the “Stimulating effect on branching” value ([2]; doses lower than picomolar) was “a clear stimulating effect is still observed”. For the same molecule, the “Stimulation of branching (factor)” value ([2]; submicromolar doses of GR24) was 5.

For `CC1=CC(O/C=C2/C(=O)OC3CC=CC23)OC1=O` (stereo not drawn) [GR7], the “% stimulation (respiration, average of 3 tests)” value [3, 6] was 24.0%, the “% stimulation (respiration, average of 3 tests)” value [3, 7] was 33.6% and the “Activity on the respiration of Gigaspora rosea” value ([3]; final concentration 0.1 μM, after 5 hours' stimulation) was “active”. The cm newly formed/spore ([4]; GR7 10^−5 M, Series 1) was 4.88 cm, the “Number of newly formed apexes” value ([4]; GR7 10^−5 M, Series 1, after 48 hours' treatment) was 9.3 and the Branching stimulation ratio [4, 8] was 5.31. The Growth stimulation ratio [4, 8] was 4.44, the cm newly formed/spore ([4]; GR7 10^−5 M, Series 2) was 6.5 cm and the “Number of newly formed apexes” value ([4]; GR7 10^−5 M, Series 2, after 48 hours' treatment) was 14.25. For the same molecule, the Branching stimulation ratio [4, 9] was 6.59, the Growth stimulation ratio [4, 9] was 2.60 and the cm newly formed/spore ([4]; GR7 10^−7 M, Series 1) was 4.65 cm. The “Number of newly formed apexes” value ([4]; GR7 10^−7 M, Series 1, after 48 hours' treatment) was 8.75, the Branching stimulation ratio [4, 10] was 5 and the Growth stimulation ratio [4, 10] was 4.23. For the same molecule, the cm newly formed/spore ([4]; GR7 10^−7 M, Series 2) was 5.09 cm, the “Number of newly formed apexes” value ([4]; GR7 10^−7 M, Series 2, after 48 hours' treatment) was 10.42 and the Branching stimulation ratio [4, 11] was 4.82. The Growth stimulation ratio [4, 11] was 2.04, the cm newly formed/spore ([4]; GR7 10^−9 M, Series 1) was 2.62 cm and the “Number of newly formed apexes” value ([4]; GR7 10^−9 M, Series 1, after 48 hours' treatment) was 8. For the same molecule, the Branching stimulation ratio [4, 12] was 4.57, the Growth stimulation ratio [4, 12] was 2.38 and the cm newly formed/spore ([4]; GR7 10^−9 M, Series 2) was 4.99 cm. For the same molecule, the “Number of newly formed apexes” value ([4]; GR7 10^−9 M, Series 2, after 48 hours' treatment) was 6.16, the Branching stimulation ratio [4, 13] was 2.85 and the Growth stimulation ratio [4, 13] was 2.00. For the same molecule, the cm newly formed/spore ([4]; GR7 10^−11 M, Series 1) was 2.65 cm, the “Number of newly formed apexes” value ([4]; GR7 10^−11 M, Series 1, after 48 hours' treatment) was 5.16 and the Branching stimulation ratio [4, 14] was 2.94. The Growth stimulation ratio [4, 14] was 2.41, the cm newly formed/spore ([4]; GR7 10^−11 M, Series 2) was 2.23 cm and the “Number of newly formed apexes” value ([4]; GR7 10^−11 M, Series 2, after 48 hours' treatment) was 2.66. The Branching stimulation ratio [4, 15] was 1.23, the Growth stimulation ratio [4, 15] was 0.89 and the “Activity on branching (number of newly formed apexes)” value ([4]; doses of the nanomolar order) was “significantly active”. For the same molecule, the “Activity on cell elongation” value ([4]; doses of the nanomolar order) was “significantly active” and the “Average points of contact (fungus-roots, per plant)” value [5] was 7.75*.
